The values below come from patent publication US20200270225A1, “Chiral Diacylhydrazine Ligands for Modulating the Expression of Exogenous Genes via an Ecdysone Receptor Complex” (Intrexon Corporation, priority 2007, published 2020).

Read-outs that look alike come from different tables or passages of the source.

The target of data set [1] is T1, [V390I/Y410E/E274V]-CfEcR (Choristoneura fumiferana, UniProt O77240).
T1 construct: assay construct b835
The data set is classed as cell-based. The note with it: 3T3 Cells; for RMFI (relative maximum fold induction): relative to GS-E ligand. In a few lines: (§1)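 NIH3T3 cells were transiently co-transfected with GAL4-DBD fused to CfEcR DEF domains (wild-type or V390I/Y410E/E274V), VP16-AD fused to chimeric human/Locusta RXR, and a GAL4-response luciferase reporter. Ligand was given at 8 doses, 0.01–33 µM, 0.33% DMSO, luciferase read at 48 h. EC50 came from fold induction over DMSO via three-parameter logistic fit; Relative Max FI was taken versus GS™-E ligand.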

The target of data set [2] is wild-type Choristoneura fumiferana EcR (D, E and F domains) (Choristoneura fumiferana, UniProt O77240). It is filed as cell-based. The note with it: WT-CtEcR, 3T3 Cells; for RMFI (relative maximum fold induction): relative to GS-E ligand. In a few lines: as §1

As usually defined, the EC50 is the concentration needed to bring the measured effect to its halfway point. As usually defined, the melting point is the temperature, or range, at which the solid turns liquid. For `CCC[C@@H](N(NC(=O)c1ccccc1)C(=O)c1cc(C)cc(C)c1)C(C)(C)C` [Example 2, (R)-3,5-Dimethyl-benzoic acid N′-benzoyl-N-(1-tert-butyl-butyl)-hydrazide], the melting point fell in the range of 66 to 68 °C. In addition, in data set [1] (R), the EC50 was 2.2 nM and the “RMFI (relative maximum fold induction)” value turned out to be 0.91. Further, in data set [2] (R), the concentration giving a half-maximal response (EC50) is ~30 nM and the “RMFI (relative maximum fold induction)” value is on record as 0.74.
`CCC[C@@H](N(NC(=O)c1ccc(OC)cc1)C(=O)c1cc(C)cc(C)c1)C(C)(C)C` [Example 13, (R)-3,5-Dimethyl-benzoic acid N-(1-tert-butyl-butyl)-N′-(4-methoxy-benzoyl)-hydrazide]: the melting point lay in the range of 65 to 67 °C. Besides, in data set [1] (R), the half-maximal effective concentration (EC50) was 1.4 nM and the “RMFI (relative maximum fold induction)” value came to 0.68. Moreover, in data set [2] (R), the EC50 is 42.3 nM and the “RMFI (relative maximum fold induction)” value worked out at 0.73.
`CCC[C@@H](N(NC(=O)c1ccc2c(c1CC)OCCO2)C(=O)c1cc(C)cc(C)c1)C(C)(C)C` [Example 22, (R)-3,5-Dimethyl-benzoic acid N-(1-tert-butyl-butyl)-N′-(5-ethyl 2,3-dihydro-benzo[1,4]dioxine-6-carbonyl)-hydrazide] yielded a melting point of 128 to 129 °C. In data set [1] (R), the EC50 was 0.064 nM and the “RMFI (relative maximum fold induction)” value turned out to be 0.77. Besides, in data set [2] (R), it took 0.266 nM to reach a half-maximal effect (EC50) and the “RMFI (relative maximum fold induction)” value was 0.78.
Consider `CCC[C@@H](N(NC(=O)c1ccc2c(c1C)OCCO2)C(=O)c1cc(C)cc(C)c1)C(C)(C)C` [Example 21, (R)-3,5-Dimethyl-benzoic acid N-(1-tert-butyl-butyl)-N′-(5-methyl-2,3-dihydro-benzo[1,4]dioxine-6-carbonyl)-hydrazide], for which the melting point was determined as 70 °C. For the same compound, in data set [1] (R), the EC50 is ~0.04 nM and the “RMFI (relative maximum fold induction)” value is 1.14. Besides, in data set [2] (R), the half-maximal effective concentration (EC50) turned out to be 0.304 nM and the “RMFI (relative maximum fold induction)” value was found to be 0.87.
In the case of `CCC[C@@H](N(NC(=O)[C@@H](C)c1ccc2cc(OC)ccc2c1)C(=O)c1cc(C)cc(C)c1)C(C)(C)C` [Example 30, (R)-3,5-Dimethyl-benzoic Acid N-(1-tert-butyl-butyl)-N′—(S)-[2-(6-methoxy-naphthalen-2-yl)-propionyl]-hydrazide], the melting point amounted to 98 °C.
For the compound `CCCC(N(NC(=O)c1cccs1)C(=O)c1cc(C)cc(C)c1)C(C)(C)C` (racemic) [rac-25], the EC50 was found to be 172 nM in data set [1] (rac, read-out: EC50) and 3160 nM in data set [2] (rac, read-out: EC50). The “RMFI (relative maximum fold induction)” value in data set [1] (rac) turned out to be 0.89; in data set [2] (rac), 0.52.
Consider `CCC[C@@H](N(NC(=O)c1cc(OC)c(C)c(OC)c1)C(=O)c1cc(C)cc(C)c1)C(C)(C)C` [Example 19, (R)-3,5-Dimethyl-benzoic acid N-(1-tert-butyl-butyl)-N′-(3,5-dimethoxy-4-methyl-benzoyl)-hydrazide], for which, in data set [1] (R), the EC50 was ~2000 nM and the “RMFI (relative maximum fold induction)” value was determined as 0.37. Also, in data set [2] (R), the EC50 is ~5000 nM and the “RMFI (relative maximum fold induction)” value is listed as 0.09.
As to `CCC[C@H](N(NC(=O)c1cccc(C)c1)C(=O)c1cc(C)cc(C)c1)C(C)(C)C` [Example 37, (S)-3,5-Dimethyl-benzoic acid N-(1-tert-butyl-butyl)-N′-(3-methyl-benzoyl)-hydrazide], in data set [1] (S), the response was half-maximal at 292 nM (EC50) and the “RMFI (relative maximum fold induction)” value worked out at 0.47. Besides, in data set [2] (S), the EC50 was ~3300 nM and the “RMFI (relative maximum fold induction)” value worked out at 0.22.
As for `C=CCC(CCc1ccccc1)N(NC(=O)c1ccc(CC)cc1)C(=O)c1cc(C)cc(C)c1` (racemic) [rac-62], the EC50 is 2110 nM in data set [1] (rac, read-out: EC50) and ~5000 nM in data set [2] (rac, read-out: EC50). In addition, the results for the “RMFI (relative maximum fold induction)” value in data set [1] (rac) and in data set [2] (rac) were 0.67 and 0.06, respectively.
As to `C=CC[C@@H](CCc1ccccc1)N(NC(=O)c1ccc(CC)cc1)C(=O)c1cc(C)cc(C)c1` [Example 62, (R)-3,5-Dimethyl-benzoic Acid N′-(4-ethyl-benzoyl)-N-(1-phenethyl-but-3-enyl)-hydrazide], in data set [1] (R), the concentration for a half-maximal effect (EC50) is 1990 nM and the “RMFI (relative maximum fold induction)” value is 0.54. Moreover, in data set [2] (R), the EC50 came out at 3090 nM and the “RMFI (relative maximum fold induction)” value came out at 0.14.
With `CCC[C@@H](N(NC(=O)c1cccs1)C(=O)c1cc(C)cc(C)c1)C(C)(C)C` [Example 25, (R)-3,5-Dimethyl-benzoic acid N-(1-tert-butyl-butyl)-N′-(thiophene-2-carbonyl)-hydrazide], in data set [1] (R), the EC50 is ~20 nM and the “RMFI (relative maximum fold induction)” value was determined as 0.72. In data set [2] (R), the 50% effective concentration (EC50) was found to be 432 nM and the “RMFI (relative maximum fold induction)” value came to 0.42.
Turning to `C=CCC(C1CCCCC1)N(NC(=O)c1cccc(OC)c1C)C(=O)c1cc(C)cc(C)c1` (racemic) [rac-60], the EC50 in data set [1] (rac, read-out: EC50) is ~200 nM; in data set [2] (rac, read-out: EC50), ~1000 nM. The “RMFI (relative maximum fold induction)” value in data set [1] (rac) was 0.73; in data set [2] (rac), 0.49.
As for `CCC[C@H](N(NC(=O)c1ccc(CC)cc1)C(=O)c1cc(C)cc(C)c1)C(C)(C)C` [Example 39, (S)-3,5-Dimethyl-benzoic acid N-(1-tert-butyl-butyl)-N′-(4-ethyl-benzoyl)-hydrazide], in data set [1] (S), the 50% effective concentration (EC50) was ~20 nM and the “RMFI (relative maximum fold induction)” value is 0.70. In data set [2] (S), a half-maximal effect (EC50) was put at 418 nM and the “RMFI (relative maximum fold induction)” value is listed as 0.29.
For the compound `CCCC(N(NC(=O)c1ccc2c(c1CC)OCCO2)C(=O)c1cc(C)cc(C)c1)C(C)(C)C` (racemic) [rac-22], the EC50 was 0.059 nM in data set [1] (rac, read-out: EC50) and 0.499 nM in data set [2] (rac, read-out: EC50). In addition, the figures for the “RMFI (relative maximum fold induction)” value in data set [1] (rac) and in data set [2] (rac) were 0.79 and 0.88, respectively.
Regarding `Cc1cc(C)cc(C(=O)N(NC(=O)OCc2ccccc2)[C@@H](CCCO)C(C)(C)C)c1` [Example 63, (S)—N′-(1-tert-Butyl-4-hydroxy-butyl)-N′-(3,5-dimethyl-benzoyl)-hydrazine Carboxylic Acid Benzyl Ester], the concentration for a half-maximal effect (EC50) in data set [1] (S) and in data set [2] (S) was > 10000 nM each time.
For `CCCC(N(NC(=O)c1cc(C)oc1C)C(=O)c1cc(C)cc(C)c1)C(C)(C)C` (racemic) [rac-26], the EC50 is 84 nM in data set [1] (rac, read-out: EC50) and 2140 nM in data set [2] (rac, read-out: EC50). In addition, the “RMFI (relative maximum fold induction)” value in data set [1] (rac) turned out to be 0.97; in data set [2] (rac), 0.76.
Taken in the same sequence, the figures for `CCCC(N(NC(=O)c1ccc2c(c1C)OCO2)C(=O)c1cc(C)cc(C)c1)C(C)(C)C` (racemic) [rac-20] were 12.1 nM, 99.3 nM, 0.92 and 0.90.
Consider `CCC[C@H](N(NC(=O)c1c(Cl)cccc1Cl)C(=O)c1cc(C)cc(C)c1)C(C)(C)C` [Example 41, (S)-3,5-Dimethyl-benzoic acid N-(1-tert-butyl-butyl)-N′-(2,6-dichloro-benzoyl)-hydrazide], for which, in data set [1] (S), the 50% effective concentration (EC50) is ~700 nM and the “RMFI (relative maximum fold induction)” value was 0.62. In addition, in data set [2] (S), the EC50 is ~3300 nM and the “RMFI (relative maximum fold induction)” value came to 0.10.
